Test results as given in ChEMBL document CHEMBL1201862, “PubChem BioAssay data set” (2004).
Active and inactive are the calls of the source.

Experiments:
[1] = target: T1, Dual specificity protein phosphatase 6 (Rattus norvegicus, UniProt Q64346);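 further: in vitro confirmatory secondary MKP-3 assay designed to detect irreversible or slow-binding inhibitors; recombinant His-tagged rat MKP-3 acting on the substrate OMFP; inhibitor potency from reduced phosphatase rate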
T1 sequence (Q64346 whole entry): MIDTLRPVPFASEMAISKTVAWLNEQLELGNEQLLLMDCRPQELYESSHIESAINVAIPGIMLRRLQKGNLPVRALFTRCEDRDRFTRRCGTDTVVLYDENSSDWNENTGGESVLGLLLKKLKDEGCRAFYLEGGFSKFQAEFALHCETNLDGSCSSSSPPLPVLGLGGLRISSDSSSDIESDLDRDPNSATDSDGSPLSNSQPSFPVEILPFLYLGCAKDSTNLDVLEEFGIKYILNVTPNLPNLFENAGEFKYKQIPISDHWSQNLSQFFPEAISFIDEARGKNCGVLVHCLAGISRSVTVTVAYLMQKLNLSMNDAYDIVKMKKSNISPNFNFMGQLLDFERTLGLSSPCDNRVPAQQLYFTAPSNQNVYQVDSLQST

[2] = target: Troponin, cardiac muscle (Homo sapiens, UniProt P19429+P45379+P63316); assay: inhibitors of cardiac thin filament calcium sensitivity, dose response, biochemical, fluorescence, cardiac regulated thin filaments, triplicate IC50 (AID 504742); assay type: protein-complex assay
[3] = target: ORF 73 (Human herpesvirus 8, UniProt O40947); assay: inhibitors of C-LANA binding to LBS DNA, dose response, biochemical, fluorescence polarization, cherry-picked samples (AID 504725); parameters: species or system Human gammaherpesvirus 8;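 further: fluorescence polarization of a labeled DNA duplex reporting LANA DNA binding; potency is for inhibitors that block LANA binding to the DNA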
[4] = target: T2, Streptokinase A (Streptococcus pyogenes serotype M1, UniProt P10520); assay: S. pyogenes streptokinase expression inhibitors, potency, dose response, plasminogen activation absorbance, OD405 (AID 1914); assay type: functional, Streptococcus pyogenes M1 GAS;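 further: secreted streptokinase activity via plasminogen activation per viability signal from cell pellet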
T2 sequence (P10520 whole entry): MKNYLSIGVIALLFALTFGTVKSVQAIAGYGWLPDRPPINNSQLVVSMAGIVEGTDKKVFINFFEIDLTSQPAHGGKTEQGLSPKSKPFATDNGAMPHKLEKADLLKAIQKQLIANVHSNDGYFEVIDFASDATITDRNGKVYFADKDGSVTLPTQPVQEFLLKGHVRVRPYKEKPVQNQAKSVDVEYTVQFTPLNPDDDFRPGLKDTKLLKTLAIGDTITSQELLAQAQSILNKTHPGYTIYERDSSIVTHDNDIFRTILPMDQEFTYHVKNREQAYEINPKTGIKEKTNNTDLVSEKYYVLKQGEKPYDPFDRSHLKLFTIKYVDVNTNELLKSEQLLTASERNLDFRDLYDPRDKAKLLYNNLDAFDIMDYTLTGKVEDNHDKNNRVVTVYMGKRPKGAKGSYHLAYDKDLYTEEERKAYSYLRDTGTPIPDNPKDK

[5] = target: Tyrosine-protein kinase receptor UFO (Homo sapiens, UniProt P30530); assay type: functional
[6] = target: Homeodomain-interacting protein kinase 2 (Homo sapiens, UniProt Q9H2X6); assay type: functional;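 further: measured within a kinome-wide kinase profiling panel, HIPK2 being one panel member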
[7] = target: Tyrosine-protein kinase FRK (Homo sapiens, UniProt P42685); assay type: functional;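 further: FRK tested as one member of a kinome panel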
[8] = target: Serine/threonine-protein kinase BRSK1 (Homo sapiens, UniProt Q8TDC3); assay type: functional;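 further: measured within a kinome-wide kinase panel, with the target listed as KIAA1811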
[9] = target: Vascular endothelial growth factor receptor 2 (Homo sapiens, UniProt P35968); assay type: functional
[10] = target: Mitogen-activated protein kinase 9 (Homo sapiens, UniProt P45984); assay type: functional;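 further: value from a kinome panel profiling assay, MAPK9 panel entry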
[11] = target: MAP kinase-activated protein kinase 2 (Homo sapiens, UniProt P49137); assay type: functional;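 further: measured as one member of a kinome-wide kinase panel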
[12] = target: Maternal embryonic leucine zipper kinase (Homo sapiens, UniProt Q14680); assay type: functional
[13] = target: Cyclin-dependent kinase 2 (Homo sapiens, UniProt P24941); assay type: functional;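 further: CDK2 measured as one member of a broad kinome profiling panel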
[14] = target: Cyclin-dependent kinase 8 (Homo sapiens, UniProt P49336); assay: Navigating the Kinome. Panel member name: CDK8; assay type: functional
[15] = target: Serine/threonine-protein kinase TAO1 (Homo sapiens, UniProt Q7L7X3); assay type: functional
[16] = target: Tyrosine-protein kinase Srms (Homo sapiens, UniProt Q9H3Y6); assay type: functional;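 further: SRMS measured as one member of a kinome-wide kinase profiling panel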
[17] = target: Protein-tyrosine kinase 6 (Homo sapiens, UniProt Q13882); assay type: functional
[18] = target: Tyrosine-protein kinase Lyn (Homo sapiens, UniProt P07948); assay type: functional;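 further: lyn as one member of a kinase panel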
[19] = target: MAP/microtubule affinity-regulating kinase 3 (Homo sapiens, UniProt P27448); assay type: functional;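 further: MARK3 affinity measured as one member of a kinome panel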
[20] = target: SRSF protein kinase 1 (Homo sapiens, UniProt Q96SB4); assay type: functional;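 further: measured as one member of a kinome-wide kinase profiling panel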
[21] = target: Non-receptor tyrosine-protein kinase TYK2 (Homo sapiens, UniProt P29597); assay type: functional
[22] = target: Aurora kinase B (Homo sapiens, UniProt Q96GD4); assay type: functional
[23] = target: Mitogen-activated protein kinase 13 (Homo sapiens, UniProt O15264); assay type: functional
[24] = target: Casein kinase I isoform alpha (Homo sapiens, UniProt P48729); assay type: functional
[25] = target: Aurora kinase A (Homo sapiens, UniProt O14965); assay type: functional;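 further: value from the Navigating the Kinome kinase panel profiling, panel entry STK6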
[26] = target: T3, Alkaline phosphatase, tissue-nonspecific isozyme (Homo sapiens, UniProt P05186); assay: inhibition of tissue-nonspecific alkaline phosphatase – biochemical, dose response (AID 488882); assay type: functional
T3 sequence (P05186 whole entry): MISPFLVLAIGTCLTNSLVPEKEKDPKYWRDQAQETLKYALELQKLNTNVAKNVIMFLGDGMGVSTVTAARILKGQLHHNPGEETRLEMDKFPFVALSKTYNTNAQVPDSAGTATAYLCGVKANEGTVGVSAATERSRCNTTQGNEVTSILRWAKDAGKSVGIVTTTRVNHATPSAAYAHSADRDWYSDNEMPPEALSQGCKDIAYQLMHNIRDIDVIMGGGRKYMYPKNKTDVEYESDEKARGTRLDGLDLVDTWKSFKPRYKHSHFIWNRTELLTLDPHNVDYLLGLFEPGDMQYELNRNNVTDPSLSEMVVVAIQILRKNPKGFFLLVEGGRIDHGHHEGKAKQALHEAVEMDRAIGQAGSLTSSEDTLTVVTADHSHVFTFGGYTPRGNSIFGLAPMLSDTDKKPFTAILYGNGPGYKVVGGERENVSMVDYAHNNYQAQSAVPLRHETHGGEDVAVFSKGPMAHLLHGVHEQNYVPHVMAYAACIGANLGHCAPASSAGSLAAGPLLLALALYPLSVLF

Question: For `O=C(O)C1Nc2c(O)cc(Cl)c([N+](=O)[O-])c2C2C=CCC12` (centres undefined), which IC50 [1] is on record?
Answer: 36800 nM (active)

Question: And the IC50 [2]?
Answer: 11000 nM (inactive)

Question: And the AC50 [3]?
Answer: 5020 nM (active)

Question: Which EC50 [4] does the source give for `O=C1C=C(N2CCCCC2)c2ccccc2C1=O` here?
Answer: 17800 nM (active)

Question: Which results are given for `Cc1n[nH]c2ccc(-c3cncc(OCC(N)Cc4cccc(Cl)c4)c3)cc12` (centres undefined)?
Answer: Ki [5]: 158 nM (active); pKi [5]: 6.8; Ki [6]: 79.4 nM (active); Ki [7]: > 2510 nM (inactive); Ki [8]: 1580 nM (active); Ki [9]: 3980 nM (active); Ki [10]: 3980 nM (active); Ki [11]: 631 nM (active); Ki [12]: 79.4 nM (active); Ki [13]: 25.1 nM (active); pKi [13]: 7.6; Ki [14]: 1.58 nM (active); pKi [14]: 8.8; Ki [15]: 316 nM (active); Ki [16]: > 1580 nM (inactive); Ki [17]: > 2510 nM (inactive); Ki [18]: > 1580 nM (inactive); Ki [19]: 251 nM (active); Ki [20]: > 5010 nM (inactive); Ki [21]: > 2000 nM (inactive); Ki [22]: 200 nM (active); Ki [23]: 631 nM (active); Ki [24]: 126 nM (active); Ki [25]: 631 nM (active)

Question: Which IC50 [26] does the source give for `Oc1ccc(N=Nc2c(O)ccc3ccccc23)cc1` here?
Answer: 16500 nM (active)
